In ChEMBL document CHEMBL1201862, “PubChem BioAssay data set” (2004):
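Five concentrations, 48 hours, 96-well plates. GI50 is the concentration that inhibits growth by half.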 The source made the active and inactive calls. No stated cut-off is given here; in the data, active = GI50 up to about 1.1 µM and inactive = higher.

Tests used:
Assay in all cases: growth of human tumour cells (NCI), 48 h
SK-OV-3 = tested on: SK-OV-3
U-251 = tested on: U-251
SW-620 = tested on: SW-620
UO-31 = tested on: UO-31
HCT-116 = tested on: HCT-116
MOLT-4 = tested on: MOLT-4
SNB-19 = tested on: SNB-19
SK-MEL-28 = tested on: SK-MEL-28
HL-60 = tested on: HL-60
MDA-N = tested on: MDA-N
RPMI-8226 = tested on: RPMI-8226
RXF 393 = tested on: RXF 393
NCI-H522 = tested on: NCI-H522
SF-268 = tested on: SF-268
A498 = tested on: A498
SN12C = tested on: SN12C
IGROV-1 = tested on: IGROV-1
SK-MEL-2 = tested on: SK-MEL-2
NCI-H226 = tested on: NCI-H226

| SMILES | GI50 (SK-OV-3) | GI50 (U-251) | GI50 (SW-620) | GI50 (UO-31) | GI50 (HCT-116) | GI50 (MOLT-4) | GI50 (SNB-19) | GI50 (SK-MEL-28) | GI50 (HL-60) | GI50 (MDA-N) | GI50 (RPMI-8226) | GI50 (RXF 393) | GI50 (NCI-H522) | GI50 (SF-268) | GI50 (A498) | GI50 (SN12C) | GI50 (IGROV-1) | GI50 (SK-MEL-2) | GI50 (NCI-H226) |
| --- | --- | --- | --- | --- | --- | --- | --- | --- | --- | --- | --- | --- | --- | --- | --- | --- | --- | --- | --- |
| CCOC(=O)NN(C(=O)OCC)c1c(C)cc(C)cc1C | > 100 µM (inactive) | > 100 µM (inactive) | > 100 µM (inactive) | 98.9 µM (inactive) | > 100 µM (inactive) | > 100 µM (inactive) | > 100 µM (inactive) | > 100 µM (inactive) | > 100 µM (inactive) | > 100 µM (inactive) | > 100 µM (inactive) | 21 µM (inactive) | > 100 µM (inactive) | > 100 µM (inactive) | > 100 µM (inactive) | > 100 µM (inactive) | 64.4 µM (inactive) | > 100 µM (inactive) | > 100 µM (inactive) |
| COc1cccc(-c2ccc3c4c2O[C@H]2C(=O)CC[C@@]5(O)[C@@H](C3)N(CC3CC3)CC[C@]425)c1 | 18.7 µM (inactive) | 16.2 µM (inactive) | 12.2 µM (inactive) | 14.5 µM (inactive) | 17.5 µM (inactive) | 10.2 µM (inactive) | 20.7 µM (inactive) | 27.4 µM (inactive) | 19.1 µM (inactive) | 18.9 µM (inactive) | 12.6 µM (inactive) | 8.53 µM (inactive) | 17.7 µM (inactive) | 20.8 µM (inactive) | 18.7 µM (inactive) | 18.5 µM (inactive) | 21.8 µM (inactive) | 19 µM (inactive) | 11.6 µM (inactive) |
| O=C(/C=C/c1ccc(O)c(O)c1O)OCCc1ccccc1 | 90.8 µM (inactive) | 26.1 µM (inactive) | 20.9 µM (inactive) | 38.7 µM (inactive) | 13.5 µM (inactive) | 23.6 µM (inactive) | 49.9 µM (inactive) | > 100 µM (inactive) | 22 µM (inactive) | 13 µM (inactive) | 21.2 µM (inactive) | 36.1 µM (inactive) | 27.9 µM (inactive) | 32.1 µM (inactive) | 74.6 µM (inactive) | 18.4 µM (inactive) | 32.9 µM (inactive) | 61.9 µM (inactive) | 27.7 µM (inactive) |
| O=c1c(-c2ccc(O)cc2)coc2cc(OC3OC(CO)C(O)C(O)C3O)cc(O)c12 (stereo not given) | > 10 µM (inactive) | > 10 µM (inactive) | > 10 µM (inactive) | 22.2 µM (inactive) | > 100 µM (inactive) | 43.1 µM (inactive) | > 100 µM (inactive) | > 10 µM (inactive) | > 10 µM (inactive) | > 100 µM (inactive) | 51.8 µM (inactive) | 40 µM (inactive) | 45.7 µM (inactive) | 41.7 µM (inactive) | > 100 µM (inactive) | > 100 µM (inactive) | > 10 µM (inactive) | > 10 µM (inactive) | > 100 µM (inactive) |
| c1ccc([B-]2(c3ccccc3)OCCc3cccc[n+]32)cc1 | 74.8 µM (inactive) | > 100 µM (inactive) | 51.9 µM (inactive) | 23.7 µM (inactive) | 35 µM (inactive) | 56.2 µM (inactive) | > 100 µM (inactive) | 47.8 µM (inactive) | 40.8 µM (inactive) | 50.2 µM (inactive) | 65.3 µM (inactive) | 33.3 µM (inactive) | 49.1 µM (inactive) | 97.5 µM (inactive) | 19.6 µM (inactive) | 59.3 µM (inactive) | 66.1 µM (inactive) | 75.9 µM (inactive) | 50.1 µM (inactive) |
| CCOC(=O)c1cc2cc(C)cc(C(=O)c3ccc([N+](=O)[O-])cc3)c2[nH]1 | > 100 µM (inactive) | 26.6 µM (inactive) | > 100 µM (inactive) | > 100 µM (inactive) | > 100 µM (inactive) | > 100 µM (inactive) | > 100 µM (inactive) | > 100 µM (inactive) | > 100 µM (inactive) | > 100 µM (inactive) | > 100 µM (inactive) | 37.7 µM (inactive) | > 100 µM (inactive) | > 100 µM (inactive) | > 100 µM (inactive) | > 100 µM (inactive) | > 100 µM (inactive) | > 100 µM (inactive) | > 100 µM (inactive) |
| C=C1C(=O)O[C@@H]2[C@H]1C[C@H](I)[C@@]1(C)CC[C@H](O1)[C@](C)(I)CCCC(C)[C@@H]2O (stereo not given in full) | 16.6 µM (inactive) | 6.07 µM (inactive) | 1.81 µM (inactive) | 3.66 µM (inactive) | 2.88 µM (inactive) | 1.49 µM (inactive) | 16.4 µM (inactive) | 6.11 µM (inactive) | 1.31 µM (inactive) | 2.7 µM (inactive) | 2.61 µM (inactive) | 1.69 µM (inactive) | 0.311 µM (active) | 12.6 µM (inactive) | 14.6 µM (inactive) | 4.98 µM (inactive) | 2.01 µM (inactive) | 12.9 µM (inactive) | 1.91 µM (inactive) |
| CCCNC(=O)N1CC(CN2CCN(c3ccccc3)CC2)O/C1=N/C(=O)Nc1ccccc1 (stereo not given) | > 100 µM (inactive) | > 100 µM (inactive) | > 100 µM (inactive) | 30.5 µM (inactive) | > 100 µM (inactive) | > 100 µM (inactive) | > 100 µM (inactive) | > 100 µM (inactive) | 3.83 µM (inactive) | > 100 µM (inactive) | > 100 µM (inactive) | 43.3 µM (inactive) | 40.7 µM (inactive) | > 100 µM (inactive) | > 100 µM (inactive) | > 100 µM (inactive) | > 100 µM (inactive) | 45.3 µM (inactive) | 2.09 µM (inactive) |
| Cc1cc(S(=O)(=O)/N=C(\NN)Nc2ccc(Cl)cc2)c(S)cc1Cl | 23 µM (inactive) | 6.87 µM (inactive) | 11.1 µM (inactive) | 5.58 µM (inactive) | 3.03 µM (inactive) | 2.75 µM (inactive) | 11.5 µM (inactive) | 21.6 µM (inactive) | 6.27 µM (inactive) | 8.87 µM (inactive) | 12.3 µM (inactive) | 28.6 µM (inactive) | 16 µM (inactive) | 15.6 µM (inactive) | 17.1 µM (inactive) | 22.8 µM (inactive) | 3.54 µM (inactive) | 19.2 µM (inactive) | 16 µM (inactive) |
| O=P(O)(O)c1ccccc1Oc1ccccc1 | > 100 µM (inactive) | > 100 µM (inactive) | > 100 µM (inactive) | > 100 µM (inactive) | > 100 µM (inactive) | > 100 µM (inactive) | > 100 µM (inactive) | > 100 µM (inactive) | > 100 µM (inactive) | > 100 µM (inactive) | > 100 µM (inactive) | > 100 µM (inactive) | > 100 µM (inactive) | > 100 µM (inactive) | 3.95 µM (inactive) | > 100 µM (inactive) | > 100 µM (inactive) | > 100 µM (inactive) | > 100 µM (inactive) |
| C(=C\C(SCc1ccccc1)SCc1ccccc1)/c1ccccc1 | > 10 µM (inactive) | > 10 µM (inactive) | > 10 µM (inactive) | > 10 µM (inactive) | > 10 µM (inactive) | > 10 µM (inactive) | > 10 µM (inactive) | > 10 µM (inactive) | > 10 µM (inactive) | > 10 µM (inactive) | > 10 µM (inactive) | > 10 µM (inactive) | > 10 µM (inactive) | > 10 µM (inactive) | > 10 µM (inactive) | > 10 µM (inactive) | > 10 µM (inactive) | > 10 µM (inactive) | > 10 µM (inactive) |
| CC(O)CN1c2ccccc2Sc2ccc(Cl)cc21 (stereo not given) | > 10 µM (inactive) | > 10 µM (inactive) | > 10 µM (inactive) | > 10 µM (inactive) | > 10 µM (inactive) | > 10 µM (inactive) | > 10 µM (inactive) | > 10 µM (inactive) | > 10 µM (inactive) | > 10 µM (inactive) | > 10 µM (inactive) | > 10 µM (inactive) | > 10 µM (inactive) | > 10 µM (inactive) | > 10 µM (inactive) | > 10 µM (inactive) | > 10 µM (inactive) | > 10 µM (inactive) | > 10 µM (inactive) |
| CC(C)(C)CNCCCNc1ccc(Cl)cc1 | > 100 µM (inactive) | > 100 µM (inactive) | > 100 µM (inactive) | 61.2 µM (inactive) | 55.1 µM (inactive) | 3.33 µM (inactive) | > 100 µM (inactive) | 20.9 µM (inactive) | < 0.01 µM (active) | 46 µM (inactive) | 21.2 µM (inactive) | 15.7 µM (inactive) | 24.1 µM (inactive) | 65.6 µM (inactive) | 14.8 µM (inactive) | 28.7 µM (inactive) | 58.1 µM (inactive) | 24 µM (inactive) | 18.5 µM (inactive) |
| O=S(=O)(/N=c1\[nH]c(-c2cc(O)c(O)c(O)c2)cs1)c1ccc(Cl)cc1Cl | 72.6 µM (inactive) | 19 µM (inactive) | 18.5 µM (inactive) | 20.4 µM (inactive) | 19 µM (inactive) | 20.7 µM (inactive) | 31 µM (inactive) | > 100 µM (inactive) | 41.8 µM (inactive) | 25.1 µM (inactive) | 19.4 µM (inactive) | 25.5 µM (inactive) | 17.9 µM (inactive) | 20.5 µM (inactive) | 53.1 µM (inactive) | 18.7 µM (inactive) | 20.8 µM (inactive) | 43.8 µM (inactive) | 50.4 µM (inactive) |
| CNCC(SC)c1ccc(O)c(O)c1 (stereo not given) | > 100 µM (inactive) | 61.1 µM (inactive) | 19.4 µM (inactive) | 43 µM (inactive) | 20.7 µM (inactive) | 17.2 µM (inactive) | > 100 µM (inactive) | 53.2 µM (inactive) | 12.9 µM (inactive) | 18.5 µM (inactive) | 21.1 µM (inactive) | 33.6 µM (inactive) | 13.7 µM (inactive) | 38.1 µM (inactive) | > 100 µM (inactive) | 21.5 µM (inactive) | 34.3 µM (inactive) | > 100 µM (inactive) | > 100 µM (inactive) |
